# Data as given in patent US9546201B2, “MUC-1 cytoplasmic domain peptides as inhibitors of cancer” (DANA-FARBER CANCER INSTITUTE, INC., priority 2008, dated 2017).
# “Also recorded” adds a separate entry of the source. Where a SMILES comes first, the peptide text is derived from it. [ ]: non-standard residue; d: D form.
# Tests used:
# MUC1-C in MCF-7 cells = molecular target: T1, MUC1-C in MCF-7 cells (Homo sapiens, UniProt P15941); test: Immunoblot of nuclear lysates, MCF-7; format: cell-based; details: MCF-7 nuclear lysates, 5 μM peptide for 3 d
# T1 construct: translated as a single polypeptide and cleaved into N- and C-terminal subunits in the endoplasmic reticulum; endogenous in cells; host or cells: ZR-75-1 and MCF-7 human breast cancer cells
# T1 sequence (P15941 1098-1255 limits assumed): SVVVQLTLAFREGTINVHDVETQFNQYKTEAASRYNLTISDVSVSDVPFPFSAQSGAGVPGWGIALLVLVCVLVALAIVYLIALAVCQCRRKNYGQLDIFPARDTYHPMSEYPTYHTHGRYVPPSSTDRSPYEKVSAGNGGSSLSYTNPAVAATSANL
# Description: FIGS. 2A-C. MUC1/CQC peptide blocks nuclear localization of MUC1-C. (FIG. 2A) ZR-75-1 cells were incubated with 5 μM FITC-labeled MUC1/CQC peptide for the indicated times and then analyzed by flow cytometry. The mean fluorescence index (MFI) is included in each of the panels. (FIGS. 2B-C) ZR-75-1 (FIG. 2B) and MCF-7 (FIG. 2C) cells were incubated in the presence of 5 μM MUC1/CQC or MUC1/AQA peptide for 3 d. Whole cell lysates (WCL) (left panels) and nuclear lysates (right panels) were immunoblotted with the indicated antibodies.
# Whole cell and nuclear lysates were prepared as described (Leng et al., 2007). Soluble proteins were subjected to immunoprecipitation with anti-Flag (Sigma, St. Louis, Mo.). Immunoprecitates and soluble proteins were analyzed by immunoblotting with anti-His (Cell Signaling Technology, Danvers, Mass.), anti-GFP (Millipore, Danvers, Mass.), anti-Flag, anti-MUC1-C (Abl; NeoMarkers, Fremont, Calif.), anti-lamin B (EMD, La Jolla, Calif.) or anti-β-actin (Sigma). Reactivity was detected with horseradish peroxidase-conjugated second antibodies and chemiluminescence.
# Human ZR-75-1 and MCF-7 breast cancer cells overexpress endogenous MUC1, and thus represent potential models for evaluating effects of the MUC1/CQC peptide (Ramasamy et al., 2007). To assess uptake, the ZR-75-1 cells were incubated with 5 μM FITC-MUC1/CQC peptide (FIG. 2A). […]
# ZR-75-1/MUC1siRNA cells = test: Viable cell number by trypan blue exclusion, ZR-75-1/MUC1siRNA; format: cell-based, human; details: 5 μM; MUC1 silenced
# Description: (§1) FIGS. 4A-E. Selectivity of MUC1/CQC for MUC1 expressing breast cancer cells. (FIG. 4A) ZR-75-1 cells were stably infected with an empty lentivirus (vector) or one expressing a MUC1 siRNA. Lysates for the infected cells were immunoblotted with the indicated antibodies. (FIG. 4B) ZR-75-1/vector cells were left untreated (diamonds), and ZR-75-1/vector (squares) and ZR-75-1/MUC1siRNA (triangles) cells were treated with 5 μM MUC1/CQC peptide for the indicated times. Viable cell number was determined by trypan blue exclusion. (FIG. 4C) 293 cells were left untreated (diamonds), and treated with 5 μM MUC1/CQC (squares) or MUC1/AQA (triangles) for the indicated times. Viable cell number was determined by trypan blue exclusion. (FIG. 4D) MCF-10A cells were left untreated (left panel), and treated with 5 μM MUC1/CQC (middle panel) or MUC1/AQA (right panel). At 3 d, cells were analyzed for cell cycle distribution. […] Viable cell number was determined by trypan blue exclusion.
# (§2) Human breast cancer ZR-75-1, ZR-75-1/vector, ZR-75-1/MUC1siRNA (Ren et al., 2004) cell lines were grown in RPMI1640 medium supplemented with 10% heat-inactivated fetal bovine serum (HI-FBS), 100 U/ml penicillin, and 100 μg/ml streptomycin (Invitrogen) in a humidified incubator at 37° C. and 5% CO2. […] Viability was determined by trypan blue exclusion. […]
# MUC1-negative 293 cells = test: Viable cell number by trypan blue exclusion, 293 cells; format: cell-based; details: 5 μM
# Description: as §1, §2
smiles,measurement,setting,value
CC[C@H](C)[C@H](NC(=O)[C@H](CC(=O)O)NC(=O)[C@H](CC(C)C)NC(=O)[C@H](CCC(N)=O)NC(=O)CNC(=O)[C@H](Cc1ccc(O)cc1)NC(=O)[C@H](CC(N)=O)NC(=O)[C@H](CCCCN)NC(=O)[C@H](CCCNC(=N)N)NC(=O)[C@H](CCCNC(=N)N)NC(=O)[C@H](CS)NC(=O)[C@H](CCC(N)=O)NC(=O)[C@H](CS)NC(=O)[C@@H](CCCNC(=N)N)NC(=O)[C@@H](CCCNC(=N)N)NC(=O)[C@@H](CCCNC(=N)N)NC(=O)[C@@H](CCCNC(=N)N)NC(=O)[C@@H](CCCNC(=N)N)NC(=O)[C@@H](CCCNC(=N)N)NC(=O)[C@@H](CCCNC(=N)N)NC(=O)[C@@H](CCCNC(=N)N)NC(=O)[C@H](N)CCCNC(=N)N)C(=O)N[C@@H](Cc1ccccc1)C(=O)N1CCC[C@H]1C(=O)O [MUC1/CQC] (H-[dR][dR][dR][dR][dR][dR][dR][dR][dR]CQCRRKNYGQLDIFP-OH; N-terminus and C-terminus assumed),nuclear MUC1-C levels,MUC1-C in MCF-7 cells,down-regulation of nuclear MUC1-C levels
same,effect on growth (viable cell number),ZR-75-1/MUC1siRNA cells,substantially less effect; also recorded: abrogated the MUC1/CQC cytotoxic effects
same,effect on growth,MUC1-negative 293 cells,no apparent effect
